Laboratory results: publication PMC9303812, “Asymmetrically Substituted m‐Terphenyl Phosphates Inhibit the Transcription Factor STAT5a” (Chembiochem, 2021)
Like-named read-outs stand apart in the source and are kept apart here.

What was measured:
STAT5a = target: T1, STAT5a (Homo sapiens, UniProt P42229); test: Fluorescence polarization (FP) binding assay, STAT5a; conditions: for selectivity with respect to other STAT family members: FP assays against STAT1, STAT3, STAT4, STAT6
T1 sequence (P42229 1-794): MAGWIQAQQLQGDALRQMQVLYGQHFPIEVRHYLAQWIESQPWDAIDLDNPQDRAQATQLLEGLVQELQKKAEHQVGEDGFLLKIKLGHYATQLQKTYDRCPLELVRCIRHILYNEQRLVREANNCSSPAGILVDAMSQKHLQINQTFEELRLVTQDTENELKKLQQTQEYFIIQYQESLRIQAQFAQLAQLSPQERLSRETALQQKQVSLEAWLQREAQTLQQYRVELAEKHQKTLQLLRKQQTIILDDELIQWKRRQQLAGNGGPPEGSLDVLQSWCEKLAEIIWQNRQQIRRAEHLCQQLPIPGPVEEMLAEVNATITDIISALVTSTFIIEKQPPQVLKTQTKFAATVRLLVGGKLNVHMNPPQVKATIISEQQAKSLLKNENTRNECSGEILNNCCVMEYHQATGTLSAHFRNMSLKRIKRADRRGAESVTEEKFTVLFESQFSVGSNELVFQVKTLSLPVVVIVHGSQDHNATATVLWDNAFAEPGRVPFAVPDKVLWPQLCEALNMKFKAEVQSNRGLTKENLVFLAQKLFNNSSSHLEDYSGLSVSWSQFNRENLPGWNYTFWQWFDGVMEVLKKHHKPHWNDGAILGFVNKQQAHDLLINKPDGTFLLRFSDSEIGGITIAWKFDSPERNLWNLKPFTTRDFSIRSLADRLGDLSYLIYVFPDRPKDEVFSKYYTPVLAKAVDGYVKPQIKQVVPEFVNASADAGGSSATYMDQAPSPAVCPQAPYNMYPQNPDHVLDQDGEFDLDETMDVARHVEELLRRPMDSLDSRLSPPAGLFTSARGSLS
Procedure: (§1) Table S1: Activities of test compounds against STAT5a and STAT5b in FP assays . Experiments were carried out in triplicate (n = 3) unless stated otherwise. n/a: not applicable.
(§2) [a]data taken from the literature.[1]
(§3) Ki values were calculated from IC50 values using the published equation.[2] […]
(§4) Table S2: Activities of 12 against STAT5 proteins in FP assays.
(§5) Fluorescence polarization assays
(§6) Fluorescence polarization assays were essentially carried out as previously described.[1] These assays quantitate to which extent a test compound is able to interfere with binding between a STAT protein and a fluorescein-labeled phosphotyrosine-containing peptide, which is known to bind to the SH2 domain of the respective STAT protein. The following protein […]
(§7) concentrations were used: 100 nM for STAT1, 150 nM for STAT3, 30 nM for STAT4, 180 nM for STAT5a, 90 nM for STAT5b and 105 nM for STAT6. All peptides were used at a concentration of 10 nM. The following peptides were used: 5 -carboxyfluorescein -GpYDKPHVL for STAT1; 5-carboxyfluorescein -GpYLPQTV-NH2 for STAT3; 5-carboxyfluorescein-GpYLPQNID-OH for STAT4; 5-carboxyfluorescein-GpYLVLDKW for STAT5a/b, and 5-carboxyfluorescein-GpYVPWQDLI-OH for STAT6. As a buffer system, 10 mM Tris (pH 8.0), 50 mM NaCl, 1 mM EDTA, 1 mM DTT, 0.1 % Nonidet P-40 substitute, and 2 % DMSO in water was used. All compounds tested were incubated for 1 h with the protein. Subsequently, the fluorescein-labeled peptide was added and the fluorescence polarization was measured with an Infinite F500 plate reader (Tecan) after another hour. IC50 values were converted to Ki-values using the published equation.[2]

STAT5b = target: T2, STAT5b (Homo sapiens, UniProt P51692); test: Fluorescence polarization (FP) binding assay, STAT5b
T2 sequence (P51692 1-787): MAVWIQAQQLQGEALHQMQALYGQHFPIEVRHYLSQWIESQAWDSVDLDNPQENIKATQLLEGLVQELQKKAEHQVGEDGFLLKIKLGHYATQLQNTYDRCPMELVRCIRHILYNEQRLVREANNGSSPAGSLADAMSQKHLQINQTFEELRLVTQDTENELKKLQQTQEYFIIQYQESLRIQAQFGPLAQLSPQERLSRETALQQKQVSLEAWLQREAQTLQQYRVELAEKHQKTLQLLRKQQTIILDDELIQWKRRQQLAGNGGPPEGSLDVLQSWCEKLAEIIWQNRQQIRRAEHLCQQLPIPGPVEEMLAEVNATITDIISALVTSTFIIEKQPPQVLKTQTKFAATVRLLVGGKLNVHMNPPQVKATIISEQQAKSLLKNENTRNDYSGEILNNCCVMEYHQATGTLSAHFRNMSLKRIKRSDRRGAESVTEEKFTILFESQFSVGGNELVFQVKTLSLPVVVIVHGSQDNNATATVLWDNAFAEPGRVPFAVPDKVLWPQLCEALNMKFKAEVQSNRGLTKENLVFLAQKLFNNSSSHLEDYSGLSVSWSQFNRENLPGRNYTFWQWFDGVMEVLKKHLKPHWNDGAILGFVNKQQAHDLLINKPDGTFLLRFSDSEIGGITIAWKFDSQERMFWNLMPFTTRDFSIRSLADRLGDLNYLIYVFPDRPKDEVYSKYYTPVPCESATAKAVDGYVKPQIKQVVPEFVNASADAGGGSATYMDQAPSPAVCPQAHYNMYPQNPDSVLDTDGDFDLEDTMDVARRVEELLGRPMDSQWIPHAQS
Procedure: as §1, §2, §3, §4, §5, §6, §7

Row | Ki (STAT5a; FP assay, Ki calculated from IC50 (n=3; 6 a n=2), read-out: STAT5a Ki) [µM] | IC50 (STAT5a; FP assay, n=3 (6a n=2), read-out: STAT5a IC50) [µM] | Ki (STAT5b; FP assay, Ki calculated from IC50 (n=3; 6 a n=2), read-out: STAT5b Ki) [µM] | IC50 (STAT5b; FP assay, n=3 (6a n=2), read-out: STAT5b IC50) [µM] | Compound | melting point [°C] | IC50 (STAT5a) [µM] | Ki (STAT5a) [µM] | selectivity with respect to other STAT family members (STAT5a) | IC50 (STAT5b) [µM] | Ki (STAT5b) [µM]
1 | – | – | – | – | COc1cc(-c2cc(OP(=O)(O)O)cc(-c3cc(F)c(F)c(F)c3)c2)cc(OC)c1OC [6 b] | > 260 | 22.1 ± 0.4 | 10.9 ± 0.2 | good selectivity | 59.4 ± 3.4 | 29.2 ± 1.7
2 | 20 ± 2.1 | 40.4 ± 4.3 | 24.9 ± 3.3 | 50.7 ± 6.8 | COc1cc(-c2cc(-c3cc(F)c(F)c(F)c3)cc(C(F)P(=O)(O)O)c2)cc(OC)c1OC (centres unmarked) [compound 12] | – | – | – | retains selectivity | – | –
